In patent publication US10604554B2, “Double-acylated GLP-1 derivatives” (Novo Nordisk A/S, priority 2012, dated 2020):

Legend:
[1] = test system: Landrace Yorkshire Duroc (LYD) pigs; experiment: Pharmacodynamic (PD) study in pigs, food intake; format: in vivo, pig; conditions: single s.c. dose 3.0 nmol/kg; for PD in pig, food intake (% of vehicle) for hours 0-24: 0-24 h; for PD in pig, food intake (% of vehicle) for hours 24-48: 24-48 h
Experimental: The purpose of this experiment was to investigate the effect of a couple of Example compounds on food intake in pigs. This was done in a pharmacodynamic (PD) study as described below, in which food intake was measured from 1 to 4 days after administration of a single dose of the GLP-1 derivative, as compared to a vehicle-treated control group.
Female Landrace Yorkshire Duroc (LYD) pigs, approximately 3 months of age, weighing approximately 30-35 kg were used (n=3-4 per group). The animals were housed in a group for approximately 1 week during acclimatisation to the animal facilities. During the experimental period the animals were placed in individual pens at least 2 days before dosing and during the entire experiment for measurement of individual food intake. The animals were fed ad libitum with pig fodder (Svinefoder Danish Top) at all times both during the acclimatisation and the experimental period. Food intake was monitored on line by logging the weight of fodder every 15 minutes. The system used was Mpigwin (Ellegaard Systems, Faaborg, Denmark).
The phosphate buffer serves as vehicle. Animals are dosed with a single subcutaneous dose of the GLP-1 derivative or vehicle (dose volume 0.025 ml/kg) on the morning of day 1, and food intake is measured for 1 day after dosing. On the last day of each study, 1-4 days after dosing, a blood sample for measurement of plasma exposure of the GLP-1 derivative is taken from the heart in anaesthetised animals. The animals are thereafter euthanised with an intra-cardial overdose of pentobarbitone.
Food intake is calculated as mean±SEM food intake in 24 h intervals (0-24 h, 24-48 h, and 48-72 h). In Table 6 below the food intake is indicated as percentage of the food intake of the vehicle group in the same time interval (dosage 3.0 nmol/kg).
Statistical comparisons of the food intake in the 24 h intervals in the vehicle vs. GLP-1 derivative group are done using two-way-ANOVA repeated measures, followed by Bonferroni post-test.

in vivo = conditions: male, Sprague Dawley, rat, iv

**Q.** Which “PD in pig, food intake (% of vehicle) for hours 0-24” value [1] does the source give for `CC[C@H](C)[C@H](NC(=O)[C@H](Cc1ccccc1)NC(=O)[C@H](CCC(=O)O)NC(=O)[C@H](CCCCNC(=O)[C@@H](N)CCCCNC(=O)COCCOCCNC(=O)COCCOCCNC(=O)CC[C@H](NC(=O)CCCCCCCCCCCCCCC(=O)O)C(=O)O)NC(=O)[C@H](C)NC(=O)[C@H](C)NC(=O)[C@H](CCC(N)=O)NC(=O)CNC(=O)[C@H](CCC(=O)O)NC(=O)[C@H](CC(C)C)NC(=O)[C@H](Cc1ccc(O)cc1)NC(=O)[C@H](CO)NC(=O)[C@H](CO)NC(=O)[C@@H](NC(=O)[C@H](CC(=O)O)NC(=O)[C@H](CO)NC(=O)[C@@H](NC(=O)[C@H](Cc1ccccc1)NC(=O)[C@@H](NC(=O)CNC(=O)[C@H](CCC(=O)O)NC(=O)C(C)(C)NC(=O)[C@@H](N)Cc1c[nH]cn1)[C@@H](C)O)[C@@H](C)O)C(C)C)C(=O)N[C@@H](C)C(=O)N[C@@H](Cc1c[nH]c2ccccc12)C(=O)N[C@@H](CC(C)C)C(=O)N[C@H](C(=O)N[C@@H](CCCNC(=N)N)C(=O)NCC(=O)N[C@@H](CCCNC(=N)N)C(=O)N[C@@H](CCCCNC(=O)[C@@H](N)CCCCNC(=O)COCCOCCNC(=O)COCCOCCNC(=O)CC[C@H](NC(=O)CCCCCCCCCCCCCCC(=O)O)C(=O)O)C(=O)O)C(C)C` [Example 10, N^ε26-[(2S)-2-amino-6-[[2-[2-[2-[[2-[2-[2-[[(4S)-4-carboxy-4-(15-carboxypentadecanoylamino)butanoyl]amino]ethoxy]ethoxy]acetyl]amino]ethoxy]ethoxy]acetyl]amino]hexanoyl], N^ε37-[(2S)-2-amino-6-[[2-[2-[2-[[2-[2-[2-[[(4S)-4-carboxy-4-(15-carboxypentadecanoylamino)butanoyl]amino]ethoxy]ethoxy]acetyl]amino]ethoxy]ethoxy]acetyl]amino]hexanoyl]-[Aib^8,Arg^34,Lys^37]-GLP-1-(7-37)-peptide] here?
**A.** The value was 105 % of vehicle.

**Q.** And the “PD in pig, food intake (% of vehicle) for hours 24-48” value [1]?
**A.** Its value is 104 % of vehicle.

**Q.** What about the half-life (in vivo) of the same compound?
**A.** The half-life was 28 h.

**Q.** With `CC[C@H](C)[C@H](NC(=O)[C@H](Cc1ccccc1)NC(=O)[C@H](CCC(=O)O)NC(=O)[C@H](CCCCNC(=O)[C@@H](N)CCCCNC(=O)CC[C@H](NC(=O)CC[C@H](NC(=O)CC[C@H](NC(=O)CCCCCCCCCCCCCCC(=O)O)C(=O)O)C(=O)O)C(=O)O)NC(=O)[C@H](C)NC(=O)[C@H](C)NC(=O)[C@H](CCC(N)=O)NC(=O)CNC(=O)[C@H](CCC(=O)O)NC(=O)[C@H](CC(C)C)NC(=O)[C@H](Cc1ccc(O)cc1)NC(=O)[C@H](CO)NC(=O)[C@H](CO)NC(=O)[C@@H](NC(=O)[C@H](CC(=O)O)NC(=O)[C@H](CO)NC(=O)[C@@H](NC(=O)[C@H](Cc1ccccc1)NC(=O)[C@@H](NC(=O)CNC(=O)[C@H](CCC(=O)O)NC(=O)C(C)(C)NC(=O)[C@@H](N)Cc1c[nH]cn1)[C@@H](C)O)[C@@H](C)O)C(C)C)C(=O)N[C@@H](C)C(=O)N[C@@H](Cc1c[nH]c2ccccc12)C(=O)N[C@@H](CC(C)C)C(=O)N[C@H](C(=O)N[C@@H](CCCNC(=N)N)C(=O)NCC(=O)N[C@@H](CCCNC(=N)N)C(=O)N[C@@H](CCCCNC(=O)[C@@H](N)CCCCNC(=O)CC[C@H](NC(=O)CC[C@H](NC(=O)CC[C@H](NC(=O)CCCCCCCCCCCCCCC(=O)O)C(=O)O)C(=O)O)C(=O)O)C(=O)O)C(C)C` [Example 13, N^ε26-[(2S)-2-amino-6-[[(4S)-4-carboxy-4-[[(4S)-4-carboxy-4-[[(4S)-4-carboxy-4-(15-carboxypentadecanoylamino)butanoyl]amino]butanoyl]amino]butanoyl]amino]hexanoyl], N^ε37-[(2S)-2-amino-6-[[(4S)-4-carboxy-4-[[(4S)-4-carboxy-4-[[(4S)-4-carboxy-4-(15-carboxypentadecanoylamino)butanoyl]amino]butanoyl]amino]butanoyl]amino]hexanoyl]-[Aib^8,Arg^34,Lys^37]-GLP-1-(7-37)-peptide] as the compound, how does the half-life (in vivo) read?
**A.** The half-life was 31 h.

**Q.** With `CC[C@H](C)[C@H](NC(=O)[C@H](Cc1ccccc1)NC(=O)[C@H](CCC(=O)O)NC(=O)[C@H](CCCCNC(=O)[C@@H](N)CCCCNC(=O)COCCOCCNC(=O)COCCOCCNC(=O)CC[C@H](NC(=O)CCCCCCCCCCCCC(=O)O)C(=O)O)NC(=O)[C@H](C)NC(=O)[C@H](C)NC(=O)[C@H](CCC(N)=O)NC(=O)CNC(=O)[C@H](CCC(=O)O)NC(=O)[C@H](CC(C)C)NC(=O)[C@H](Cc1ccc(O)cc1)NC(=O)[C@H](CO)NC(=O)[C@H](CO)NC(=O)[C@@H](NC(=O)[C@H](CC(=O)O)NC(=O)[C@H](CO)NC(=O)[C@@H](NC(=O)[C@H](Cc1ccccc1)NC(=O)[C@@H](NC(=O)CNC(=O)[C@H](CCC(=O)O)NC(=O)C(C)(C)NC(=O)[C@@H](N)Cc1c[nH]cn1)[C@@H](C)O)[C@@H](C)O)C(C)C)C(=O)N[C@@H](C)C(=O)N[C@@H](Cc1c[nH]c2ccccc12)C(=O)N[C@@H](CC(C)C)C(=O)N[C@H](C(=O)N[C@@H](CCCNC(=N)N)C(=O)NCC(=O)N[C@@H](CCCNC(=N)N)C(=O)N[C@@H](CCCCNC(=O)[C@@H](N)CCCCNC(=O)COCCOCCNC(=O)COCCOCCNC(=O)CC[C@H](NC(=O)CCCCCCCCCCCCC(=O)O)C(=O)O)C(=O)O)C(C)C` [Example 19, N^ε26-[(2S)-2-amino-6-[[2-[2-[2-[[2-[2-[2-[[(4S)-4-carboxy-4-(13-carboxytridecanoylamino)butanoyl]amino]ethoxy]ethoxy]acetyl]amino]ethoxy]ethoxy]acetyl]amino]hexanoyl], N^ε37-[(2S)-2-amino-6-[[2-[2-[2-[[2-[2-[2-[[(4S)-4-carboxy-4-(13-carboxytridecanoylamino)butanoyl]amino]ethoxy]ethoxy]acetyl]amino]ethoxy]ethoxy]acetyl]amino]hexanoyl]-[Aib^8,Arg^34,Lys^37]-GLP-1-(7-37)-peptide] as the compound, how does the “PD in pig, food intake (% of vehicle) for hours 0-24” value [1] read?
**A.** The value was 52 % of vehicle.

**Q.** And the “PD in pig, food intake (% of vehicle) for hours 24-48” value [1]?
**A.** Its value is 64 % of vehicle.

**Q.** What about the half-life (in vivo) of the same compound?
**A.** Its half-life is 13 h.

**Q.** Which half-life (in vivo) does the source give for `CC[C@H](C)[C@H](NC(=O)[C@H](Cc1ccccc1)NC(=O)[C@H](CCC(=O)O)NC(=O)[C@H](CCCCNC(=O)[C@@H](N)CCCCNC(=O)[C@@H](N)CCCCNC(=O)CC[C@H](NC(=O)CCCCCCCCCCCCCCCCC(=O)O)C(=O)O)NC(=O)[C@H](C)NC(=O)[C@H](C)NC(=O)[C@H](CCC(N)=O)NC(=O)CNC(=O)[C@H](CCC(=O)O)NC(=O)[C@H](CC(C)C)NC(=O)[C@H](Cc1ccc(O)cc1)NC(=O)[C@H](CO)NC(=O)[C@H](CO)NC(=O)[C@@H](NC(=O)[C@H](CC(=O)O)NC(=O)[C@H](CO)NC(=O)[C@@H](NC(=O)[C@H](Cc1ccccc1)NC(=O)[C@@H](NC(=O)CNC(=O)[C@H](CCC(=O)O)NC(=O)C(C)(C)NC(=O)[C@@H](N)Cc1c[nH]cn1)[C@@H](C)O)[C@@H](C)O)C(C)C)C(=O)N[C@@H](C)C(=O)N[C@@H](Cc1c[nH]c2ccccc12)C(=O)N[C@@H](CC(C)C)C(=O)N[C@H](C(=O)N[C@@H](CCCNC(=N)N)C(=O)NCC(=O)N[C@@H](CCCNC(=N)N)C(=O)N[C@@H](CCCCNC(=O)[C@@H](N)CCCCNC(=O)[C@@H](N)CCCCNC(=O)CC[C@H](NC(=O)CCCCCCCCCCCCCCCCC(=O)O)C(=O)O)C(=O)O)C(C)C` [Example 27, N^ε26-[(2S)-2-amino-6-[[(2S)-2-amino-6-[[(4S)-4-carboxy-4-(17-carboxyheptadecanoylamino)butanoyl]amino]hexanoyl]amino]hexanoyl], N^ε37-[(2S)-2-amino-6-[[(2S)-2-amino-6-[[(4S)-4-carboxy-4-(17-carboxyheptadecanoylamino)butanoyl]amino]hexanoyl]amino]hexanoyl]-[Aib^8,Arg^34,Lys^37]-GLP-1-(7-37)-peptide] here?
**A.** The half-life was 21 h.
